This assay deals with HBV rcDNA in HepDE19 cells. Nature of the assay: HepDE19 assay with bDNA quantitation of HBV rcDNA. It is filed as cell-based, hepatitis B virus (HBV). The method, then:
HepDE19 Assay with bDNA Quantitation of HBV rcDNA:
HepDE19 cell culture system is a HepG2 (human hepatocarcinoma) derived cell line that supports HBV DNA replication and cccDNA formation in a tetracycline (Tet)-regulated manner and produces HBV rcDNA and a detectable reporter molecule dependent on the production and maintenance of cccDNA (Guo, et al., 2007, J. Virol. 81:12472-12484).
HepDE19 (50,000 cells/well) were plated in 96-well collagen-coated tissue-culture treated microtiter plates in DMEM/F12 medium supplemented with 10% fetal bovine serum, 1% penicillin-streptomycin and 1 μg/mL tetracycline and incubated in a humidified incubator at 37° C. and 5% CO2 overnight. Next day, the cells were switched to fresh medium without tetracycline and incubated for 4 hours at 37° C. and 5% CO2. The cells were treated with fresh Tet-free medium with compounds at concentrations starting at 25 μM and a serial, ½ log, 8-point, titration series in duplicate. The final DMSO concentration in the assay was 0.5%. The plates were incubated for 7 days in a humidified incubator at 37° C. and 5% CO2. Following a 7 day-incubation, the level of rcDNA present in the inhibitor-treated wells was measured using a Quantigene 2.0 bDNA assay kit (Affymetrix, Santa Clara, Calif.) with HBV specific custom probe set and manufacturers instructions. Concurrently, the effect of compounds on cell viability was assessed using replicate plates, plated at a density of 5,000 cells/well and incubated for 4 days, to determine the ATP content as a measure of cell viability using the cell-titer glo reagent (CTG; Promega Corporation, Madison, Wis.) as per manufacturer's instructions. The plates were read using a Victor luminescence plate reader (PerkinElmer Model 1420 Multilabel counter) and the relative luminescence units (RLU) data generated from each well was calculated as % inhibition of the untreated control wells and analyzed using XL-Fit module in Microsoft Excel to determine EC50 and EC90 (bDNA) and CC50 (CTG) values using a 4-parameter curve fitting algorithm.
Representative compounds of the invention were tested for their abilities to inhibit formation of relaxed circular DNA (rcDNA) in a HepDE19 assay, as described elsewhere herein.

The mark [1] stands for this setting: HepDE19 cells, inhibition of rcDNA formation, 7 day incubation, top concentration 25 μM, read-out: DE-19 bDNA EC50.
The mark [2] stands for this setting: Hepatitis B virus, HepDE19, 168 h, read-out: DE-19 bDNA EC50 (μM), HepDE19 cells, inhibition of rcDNA formation, 7 day incubation, top concentration 25 μM.
[3] abbreviates: Hepatitis B virus, HepDE19, 168 h, HepDE19 cells, inhibition of rcDNA formation, 7 day incubation, top concentration 25 μM, read-out: DE-19 bDNA EC50.

Read-outs that look alike come from different tables or passages of the source. Bounds are passed on as bounds.

In the case of `O=C(NC1CSc2c(C(=O)Nc3ccc(F)c(Cl)c3)cccc21)OCc1ccccn1` (centres unmarked) [Compound 35, O-Pyridin-2-ylmethyl, N-(7-((3-chloro-4-fluorophenyl)carbamoyl)-2,3-dihydrobenzo[b]thiophen-3-yl) carbamate], the EC50 under setting [1] was 0.78 µM.
Take `O=C(NC1CSc2c(C(=O)Nc3ccc(F)c(Cl)c3)cccc21)OCc1ccccn1` (centres unmarked) [Compound 36, O-Pyridin-2-ylmethyl, N-(7-((3-chloro-4-fluorophenyl)carbamoyl)-2,3-dihydrobenzo[b]thiophen-3-yl) carbamate]: the EC50 under setting [1] is more than 25 µM.
With `COC(=O)NC1CSc2c(C(=O)Nc3ccc(F)c(Cl)c3)cccc21` (centres unmarked) [Compound 37, O-Methyl, N-(7-((3-chloro-4-fluorophenyl)carbamoyl)-2,3-dihydrobenzo[b]thiophen-3-yl) carbamate], the EC50 under setting [2] came out at 0.95 µM.
As to `CN1C(=O)CC[C@H]1COC(=O)N[C@H]1CCc2c(C(=O)Nc3ccc(F)c(Cl)c3)ccc(F)c21` [Compound 39], the EC50 under setting [3] is 0.6 µM.
For the compound `Cc1cc(NC(=O)c2ccc(F)c3c2CC[C@@H]3NC(=O)OCc2ccccn2)ccc1F` [Compound 40, O-Pyridin-2-ylmethyl, N—(S)-(7-fluoro-4-((4-fluoro-3-methylphenyl)carbamoyl)-2,3-dihydro-1H-inden-1-yl) carbamate], under setting [3], the EC50 turned out to be 0.62 µM.
For the compound `O=C(N[C@H]1CCc2c(C(=O)Nc3ccc(F)c(Cl)c3)ccc(F)c21)OCc1cn2ccccc2n1` [Compound 41, O-Imidazo[1,2-a]pyridin-2-ylmethyl, N—(S)-(4-((3-chloro-4-fluorophenyl)carbamoyl)-7-fluoro-2,3-dihydro-1H-inden-1-yl) carbamate], the EC50 under setting [3] worked out at 0.16 µM.
For `O=C(N[C@H]1CCc2c(C(=O)Nc3ccc(F)c(Cl)c3)ccc(F)c21)OCc1cccc(N2CCOCC2)n1` [Compound 42, O-(6-Morpholinopyridin-2-yl)methyl, N—(S)-(4-((3-chloro-4-fluorophenyl)carbamoyl)-7-fluoro-2,3-dihydro-1H-inden-1-yl) carbamate], under setting [2], the EC50 is 0.27 µM.
As for `CN1C(=O)CC[C@@H]1COC(=O)N[C@H]1CCc2c(C(=O)Nc3ccc(F)c(Cl)c3)ccc(F)c21` [Compound 43], under setting [2], the EC50 was 0.54 µM.
On the same count and under the same terms, for `COc1cccc(COC(=O)N[C@H]2CCc3c(C(=O)Nc4ccc(F)c(Cl)c4)ccc(F)c32)n1` [Compound 44, O-(6-Methoxypyridin-2-yl)methyl, N—(S)-(4-((3-chloro-4-fluorophenyl)carbamoyl)-7-fluoro-2,3-dihydro-1H-inden-1-yl) carbamate] the value was 0.38 µM; for `O=C(Nc1ccc(F)c(Cl)c1)c1ccc(F)c2c1CC[C@@H]2Nc1ncccn1` [Compound 45, (S)—N-(3-chloro-4-fluorophenyl)-7-fluoro-1-(pyrimidin-2-ylamino)-2,3-dihydro-1H-indene-4-carboxamide], 0.25 µM; for `COC(=O)N[C@@H]1c2cccc(C(=O)Nc3ccc(F)c(Cl)c3)c2C[C@H]1O` [Compound 46, O-Methyl, N-((1R,2R)-4-((3-chloro-4-fluorophenyl)carbamoyl)-2-hydroxy-2,3-dihydro-1H-inden-1-yl) carbamate], 0.7 µM.
The same measure, in the same setting: as for `CNC(=O)N[C@@H]1c2cccc(C(=O)Nc3ccc(F)c(Cl)c3)c2C[C@H]1O` [Compound 47, (1R,2R)—N-(3-Chloro-4-fluorophenyl)-2-hydroxy-1-(3-methylureido)-2,3-dihydro-1H-indene-4-carboxamide], the figure is 11 µM; as for `CN(C)c1cccc(COC(=O)N[C@H]2CCc3c(C(=O)Nc4ccc(F)c(Cl)c4)ccc(F)c32)n1` [Compound 48, O-(6-(Dimethylamino)pyridin-2-yl)methyl, N—(S)-(4-((3-chloro-4-fluorophenyl)carbamoyl)-7-fluoro-2,3-dihydro-1H-inden-1-yl) carbamate], 0.16 µM; as for `COc1cnc(N[C@H]2CCc3c(C(=O)Nc4ccc(F)c(Cl)c4)ccc(F)c32)nc1` [Compound 49, (S)—N-(3-Chloro-4-fluorophenyl)-7-fluoro-1-((5-methoxypyrimidin-2-yl)amino)-2,3-dihydro-1H-indene-4-carboxamide], 0.17 µM.

Source of the values: patent US11098010B2 (priority 2017, dated 2021).
